The values below come from patent US20250084095A1, “Aminopyrimidine Derivatives as Cyclin-Dependent Kinase Inhibitors” (Accutar Biotechnology Inc., priority 2023, published 2025).

Common to all, as to type: cell-based
The test system of one assay is 22RV1 cells. Kind of assay: Cell growth inhibition of 22RV1 cells (CellTiter-Glo). The conditions noted are these: for GI50: 5 days, CellTiter-Glo. Put shortly: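 22RV1 cells were plated in RPMI1640 with FBS (20% in one version, 10% in the other) and dosed next day at various concentrations from DMSO stocks. After 5 days at 37 °C, viability was measured by CellTiter-Glo luminescence.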
For orientation: ATP-based viability assays read luminescence as a measure of living cells.

Assay [1] deals with Phospho-Rb (Ser807/811) in SW1573-CDK6 KO cells. The experiment in a line: Phospho-Rb expression inhibition in SW1573-CDK6 KO cells quantified by in cell Western. The conditions noted are these: Homo sapiens, 24 hours, read-out: SW1573 CDK6 KO pRb IC50. The protocol: (§1) Parental SW1573 cells were obtained from the American Type Culture Collection (ATCC). CDK4 or CDK6 gene in […] cells was knocked out using the CRISPR-Cas9 technology. First, gRNA complex of CDK4 or CDK6 was prepared with Alt-R CRISPR-Cas9 tracrRNA and crRNA CDK4 (5′-[…]-3′ (SEQ ID NO: 4)) or CDK6 (5′-[…]-3′ (SEQ ID NO. 5)) (IDT-Integrated DNA Technologies), and then ribonucleoprotein (RNP) complex of CDK4 or CDK6 was prepared with respective gRNA complex and Alt-R S.p. Cas9 Nuclease V3 (IDT-Integrated DNA Technologies). Next, 5×10^4/10 μL SWJ1573 cells were electroporated with the CDK4 or CDK6 RNP complex and Alt-R Cas9 Electroporation Enhancer using Neon Transfection System (Thermo Fisher). Cells were then plated in a 96-well plate to select single clones for validation of CDK4 or CDK6 knockout by western blot analysis.
(§2) MCF7 cells were obtained from American Type Culture Collection (ATCC, HTB-22). SW1573-CDK6 KO and SW1573-CDK4 KO cells were generated by the CRISPR-Cas9 technology. All cells were plated in 96-well plates (VWR #10062-900, or Corning #3904) in 90 uL culture medium at a density of 20,000 cells/well in the respective growth medium containing 10% FBS and 1% Penicillin Streptomycin, and then incubated at 37° C. overnight. The following day, the test compound was administered to the cells by using 1000× compound stock solution prepared in DMSO at various concentrations. 1000× compound stock solution was first diluted in culturing medium to 10×, then 10 uL compound medium was added to each well in the cell plates. After administration of the compound, the cells were then incubated at 37° C. for 24 hours. Upon completion, the cells were washed with PBS briefly. 150 uL/well of 4% formaldehyde was added and the plates were incubated at room temperature for 20 mins. The cells were washed with PBS briefly, and permeabilized with 150 uL/well of ice cold 100% methanol for 10 mins. The cells were washed with PBS briefly and blocked with 100 uL/well LI-COR blocking buffer for 1 hr at room temperature with gentle shaking. The cells were incubated overnight at 4° C. with 50 uL primary antibody rabbit anti-Phospho-Rb (Ser807/811) (1: 500, Cell Signaling, #8516) and anti-Rb (1:200, Santa Cruz, sc-73598) diluted in Intercept Blocking Buffer (LI-COR, #927-60001) containing 0.1% Tween 20. The next day, the cells were washed with 200 uL PBS containing 0.1% Tween 20, 5×5 mins at room temperature with gentle shaking, and incubated with 50 uL secondary antibody, IRDye® 800CW Goat anti-Rabbit IgG (1:1000, LI-COR, #926-32211) and IRDye®680RD Goat anti-Mouse IgG (1:1000, LI-COR, #926-68070), in LI-COR blocking buffer with 0.2% Tween 20 for 1 hr at room temperature with gentle shaking. The cells were washed with 200 uL PBS containing 0.1% Tween 20, 5×5 mins at room temperature with gentle shaking. The cells were washed with PBS for 5 mins. 100 uL fresh PBS was added to each well and the plates were imaged on a LI-COR Odyssey CLX plate reader.

The test system of assay [2] is Phospho-Rb (Ser807/811) in SW1573-CDK4 KO cells. The experiment in a line: Phospho-Rb expression inhibition in SW1573-CDK4 KO cells quantified by in cell Western. As to conditions: Homo sapiens, 24 hours, read-out: SW1573 CDK4 KO pRb IC50. Here is the method: as §1, §2
[3] abbreviates: Homo sapiens, 22Rv1, 120 h, read-out: 22RV1 Cell Growh GI50.

pIC50: −log10 of the molar value. Where two headings read alike, the source gives them in different places.

The GI50 is the concentration that inhibits growth by half. Broadly, the pIC50 is the IC50 on a negative log10 scale, so that one unit is a factor of ten. As for `CC(C)n1c(C(C)(C)O)nc2c(F)cc(-c3nc(N[C@@H]4C[C@H]5CO[C@H](O5)[C@H]4O)ncc3Cl)cc21` [Compound 1, (1S,3R,4S,5R)-3-((5-chloro-4-(4-fluoro-2-(2-hydroxypropan-2-yl)-1-isopropyl-1H-benzo[d]imidazol-6-yl)pyrimidin-2-yl)amino)-6,8-dioxabicyclo[3.2.1]octan-4-ol], the GI50 is not above 120 nM with 22RV1 cells (setting [3]) and 144 nM with 22RV1 cells (Homo sapiens, 22Rv1, 120 h, read-out: 22RVI, GI50). Also, the “Potency in 22RV1 cell growth inhibition compared with the reference compound” value in the assay with 22RV1 cells (versus PF-07220060) is reported as “slightly higher potency”. The pIC50 in assay [1] was not below 7.40; in assay [2], less than 6.00.

In the case of `Cc1nc2c(F)cc(-c3nc(N[C@@H]4C[C@H]5CO[C@H](O5)[C@H]4O)ncc3Cl)cc2n1C(C)C` [Compound 25, (1S,3R,4S,5R)-3-((5-chloro-4-(4-fluoro-1-isopropyl-2-methyl-1H-benzo[d]imidazol-6-yl)pyrimidin-2-yl)amino)-6,8-dioxabicyclo[3.2.1]octan-4-ol], the GI50 in the assay with 22RV1 cells (setting [3]) lay within 120 to 450 nM. For the same compound, the negative-log IC50 (pIC50) in assay [1] is not below 7.40; in assay [2], less than 6.00.

Regarding `Cc1c(C)n(C(C)C)c2cc(-c3nc(N[C@@H]4C[C@H]5CO[C@H](O5)[C@H]4O)ncc3Cl)ccc2c1=O` [Compound 191, 7-(5-chloro-2-(((1S,3R,4S,5R)-4-hydroxy-6,8-dioxabicyclo[3.2.1]octan-3-yl)amino)pyrimidin-4-yl)-1-isopropyl-2,3-dimethylquinolin-4(1H)-one], the GI50 with 22RV1 cells (setting [3]) was in the range of 450 to 3000 nM. The negative logarithm of the IC50 (pIC50) was 6.00 to 6.82 in assay [1] and less than 6.00 in assay [2].

Turning to `CNCc1c(C)c(=O)c2ccc(-c3nc(N[C@@H]4C[C@H]5CO[C@H](O5)[C@H]4O)ncc3F)cc2n1C(C)C` [Compound 194, 7-(5-fluoro-2-(((1S,3R,4S,5R)-4-hydroxy-6,8-dioxabicyclo[3.2.1]octan-3-yl)amino)pyrimidin-4-yl)-1-isopropyl-3-methyl-2-((methylamino)methyl)quinolin-4(1H)-one], in the assay with 22RV1 cells (setting [3]), the GI50 was in the range of 120 to 450 nM. Further, the results for the pIC50 in assay [1] and in assay [2] were 6.82 to 7.40 and less than 6.00, respectively.

As to `Cc1c(CN(C)C)n(C(C)C)c2cc(-c3nc(N[C@@H]4C[C@H]5CO[C@H](O5)[C@H]4O)ncc3F)ccc2c1=O` [Compound 195, 2-((dimethylamino)methyl)-7-(5-fluoro-2-(((1S,3R,4S,5R)-4-hydroxy-6,8-dioxabicyclo [3.2.1]octan-3-yl)amino)pyrimidin-4-yl)-1-isopropyl-3-methylquinolin-4(1H)-one], in the assay with 22RV1 cells (setting [3]), the GI50 was 120 to 450 nM. In addition, the pIC50 in assay [1] is not below 7.40; in assay [2], less than 6.00.

For the compound `Cc1c(CN2CCC2)n(C(C)C)c2cc(-c3nc(N[C@@H]4C[C@H]5CO[C@H](O5)[C@H]4O)ncc3F)ccc2c1=O` [Compound 196, 2-(azetidin-1-ylmethyl)-7-(5-fluoro-2-(((1S,3R,4S,5R)-4-hydroxy-6,8-dioxabicyclo[3.2.1]octan-3-yl)amino)pyrimidin-4-yl)-1-isopropyl-3-methylquinolin-4(1H)-one], the GI50 with 22RV1 cells (setting [3]) was 120 to 450 nM. Further, the pIC50 in assay [1] is 6.82 to 7.40; in assay [2], less than 6.00.

On to `Cc1c(CN2CC(F)C2)n(C(C)C)c2cc(-c3nc(N[C@@H]4C[C@H]5CO[C@H](O5)[C@H]4O)ncc3F)ccc2c1=O` [Compound 197, 7-(5-fluoro-2-(((1S,3R,4S,5R)-4-hydroxy-6,8-dioxabicyclo[3.2.1]octan-3-yl)amino)pyrimidin-4-yl)-2-((3-fluoroazetidin-1-yl)methyl)-1-isopropyl-3-methylquinolin-4(1H)-one], for which the GI50 in the assay with 22RV1 cells (setting [3]) is 120 to 450 nM. Further, the values for the pIC50 in assay [1] and in assay [2] were 6.82 to 7.40 and less than 6.00, respectively.

For the compound `Cc1c(CN2[C@@H](C)COC[C@@H]2C)n(C(C)C)c2cc(-c3nc(N[C@@H]4C[C@H]5CO[C@H](O5)[C@H]4O)ncc3F)ccc2c1=O` [Compound 199, 2-(((3S,5S)-3,5-dimethylmorpholino)methyl)-7-(5-fluoro-2-(((1S,3R,4S,5R)-4-hydroxy-6,8-dioxabicyclo[3.2.1]octan-3-yl)amino)pyrimidin-4-yl)-1-isopropyl-3-methylquinolin-4(1H)-one], the GI50 in the assay on 22RV1 cells (setting [3]) is not above 120 nM. In addition, the pIC50 in assay [1] is not below 7.40; in assay [2] it was 6.00 to 6.82.

With `CC(C)n1c(CN2[C@@H](C)COC[C@@H]2C)c(F)c(=O)c2ccc(-c3nc(N[C@@H]4C[C@H]5CO[C@H](O5)[C@H]4O)ncc3Cl)cc21` [Compound 201, 7-(5-chloro-2-(((1S,3R,4S,5R)-4-hydroxy-6,8-dioxabicyclo[3.2.1]octan-3-yl)amino)pyrimidin-4-yl)-2-(((3S,5S)-3,5-dimethylmorpholino)methyl)-3-fluoro-1-isopropylquinolin-4(1H)-one], the GI50 in the assay with 22RV1 cells (setting [3]) lay within 120 to 450 nM. The pIC50 in assay [1] was 6.82 to 7.40; in assay [2], less than 6.00.

Consider `CC(C)n1c(CN2CC[C@@H](F)C2)c(F)c(=O)c2ccc(-c3nc(N[C@@H]4C[C@H]5CO[C@H](O5)[C@H]4O)ncc3F)cc21` [Compound 202, 3-fluoro-7-(5-fluoro-2-(((1S,3R,4S,5R)-4-hydroxy-6,8-dioxabicyclo[3.2.1]octan-3-yl)amino)pyrimidin-4-yl)-2-(((R)-3-fluoropyrrolidin-1-yl)methyl)-1-isopropylquinolin-4(1H)-one], for which the GI50 in the assay with 22RV1 cells (setting [3]) lay within 450 to 3000 nM. In addition, the pIC50 in assay [1] is 6.82 to 7.40; in assay [2], less than 6.00.

Consider `CC(C)n1c(CN2[C@@H](C)COC[C@@H]2C)c(C(F)F)c(=O)c2ccc(-c3nc(N[C@@H]4C[C@H]5CO[C@H](O5)[C@H]4O)ncc3Cl)cc21` [Compound 204, 7-(5-chloro-2-(((1S,3R,4S,5R)-4-hydroxy-6,8-dioxabicyclo[3.2.1]octan-3-yl)amino)pyrimidin-4-yl)-3-(difluoromethyl)-2-(((3S,5S)-3,5-dimethylmorpholino)methyl)-1-isopropylquinolin-4(1H)-one], for which the GI50 with 22RV1 cells (setting [3]) fell in the range of 120 to 450 nM. The pIC50 was 6.82 to 7.40 in assay [1] and less than 6.00 in assay [2].

As to `CC(C)n1c(CN2[C@@H](C)COC[C@@H]2C)cc(=O)c2ccc(-c3nc(N[C@@H]4C[C@H]5CO[C@H](O5)[C@H]4O)ncc3Cl)cc21` [Compound 205, 7-(5-chloro-2-(((1S,3R,4S,5R)-4-hydroxy-6,8-dioxabicyclo[3.2.1]octan-3-yl)amino)pyrimidin-4-yl)-2-(((3S,5S)-3,5-dimethylmorpholino)methyl)-1-isopropylquinolin-4(1H)-one], the GI50 in the assay with 22RV1 cells (setting [3]) was 120 to 450 nM. Moreover, the negative-log IC50 (pIC50) is 6.82 to 7.40 in assay [1] and less than 6.00 in assay [2].

Take `Cc1c(CN2[C@@H](C)COC[C@@H]2C)n(C(C)C)c2cc(-c3nc(N[C@@H]4C[C@H]5CO[C@H](O5)[C@H]4O)ncc3Cl)ccc2c1=O` [Compound 206, 7-(5-chloro-2-(((1S,3R,4S,5R)-4-hydroxy-6,8-dioxabicyclo[3.2.1]octan-3-yl)amino)pyrimidin-4-yl)-2-(((3S,5S)-3,5-dimethylmorpholino)methyl)-1-isopropyl-3-methylquinolin-4(1H)-one]: in the assay on 22RV1 cells (setting [3]), the GI50 was not above 120 nM. The results for the negative logarithm of the IC50 (pIC50) in assay [1] and in assay [2] were not below 7.40 and 6.00 to 6.82, respectively.

Turning to `CC(C)n1c(C(C)(C)O)nc2c(F)cc(-c3nc(N[C@@H]4CCOC[C@H]4O)ncc3Cl)cc21` [Reference Compound, PF-07220060, reference compound], the 50% growth inhibitory concentration (GI50) with 22RV1 cells (read-out: 22RVI, GI50) is 153 nM.
